# Measured values from US6248739A, “Quinolinecarboxamides as antiviral agents” (Pharmacia & Upjohn Company, priority 1999, dated 2001).
# Counter-ions that a name gives are not always drawn.
# Target: T1, HCMV polymerase (Human cytomegalovirus, UniProt P08546)
# T1 construct: made in house; host or cells: recombinant baculovirus-infected SF-9 insect cells
# Assay: biochemical
# Conditions: not given
# Description: The HCMV polymerase assay is performed using a scintillation proximity assay (SPA) as described in several references, such as N. D. Cook, et al., Pharmaceutical Manufacturing International, pages 49-53 (1992); K. Takeuchi, Laboratory Practice, September issue (1992); U.S. Pat. No. 4,568,649 (1986); which are incorporated by reference herein. Reactions are performed in 96-well plates. The assay is conducted in 100 μl volume with 5.4 mM HEPES (pH 7.5), 11.7 mM KCl, 4.5 mM MgCl2, 0.36 mg/ml BSA, and 90 nM ^3 H-dTTP. Assays are run with and without CHAPS, (3-[(3-Cholamidopropyl)dimethylammonio]-1-propane-sulfonate) at a final concentration of 2 mM. HCMV polymerase is diluted in enzyme dilution buffer containing 50% glycerol, 250 mM NaCl, 10 mM HEPES (pH 7.5), 100 μg/ml BSA, and 0.01% sodium azide. The HCMV polymerase, which is expressed in recombinant baculovirus-infected SF-9 cells and purified according to literature procedures, is added at 10% (or 10 μl) of the final reaction volume, i.e., 100 μl. Compounds are diluted in 50% DMSO and 10 μl are added to each well. Control wells contain an equivalent concentration of DMSO. Unless noted otherwise, reactions are initiated via the addition of 6 nM biotinylated poly(dA)-oligo(dT) template/primer to reaction mixtures containing the enzyme, substrate, and compounds of interest. Plates are incubated in a 25 C. or 37 C. H2 O bath and terminated via the addition of 40 μl/reaction of 0.5 M EDTA (pH 8) per well. Reactions are terminated within the time-frame during which substrate incorporation is linear and varied depending upon the enzyme and conditions used, i.e., 30 min. for HCMV polymerase. Ten μl of streptavidin-SPA beads (20 mg/ml in PBS/10% glycerol) are added following termination of the reaction. Plates are incubated 10 min. at 37 C., then equilibrated to room temperature, and counted on a Packard Topcount. Linear regressions are performed and IC50 's are calculated using computer software.
# A modified version of the above HCMV polymerase assay is performed as described above, but with the following changes: Compounds are diluted in 100% DMSO until final dilution into assay buffer. In the previous assay, compounds are diluted in 50% DMSO. 4.5 mM dithiotherotol (DTT) is added to the polymerase buffer.
# T1 sequence (P08546 whole entry): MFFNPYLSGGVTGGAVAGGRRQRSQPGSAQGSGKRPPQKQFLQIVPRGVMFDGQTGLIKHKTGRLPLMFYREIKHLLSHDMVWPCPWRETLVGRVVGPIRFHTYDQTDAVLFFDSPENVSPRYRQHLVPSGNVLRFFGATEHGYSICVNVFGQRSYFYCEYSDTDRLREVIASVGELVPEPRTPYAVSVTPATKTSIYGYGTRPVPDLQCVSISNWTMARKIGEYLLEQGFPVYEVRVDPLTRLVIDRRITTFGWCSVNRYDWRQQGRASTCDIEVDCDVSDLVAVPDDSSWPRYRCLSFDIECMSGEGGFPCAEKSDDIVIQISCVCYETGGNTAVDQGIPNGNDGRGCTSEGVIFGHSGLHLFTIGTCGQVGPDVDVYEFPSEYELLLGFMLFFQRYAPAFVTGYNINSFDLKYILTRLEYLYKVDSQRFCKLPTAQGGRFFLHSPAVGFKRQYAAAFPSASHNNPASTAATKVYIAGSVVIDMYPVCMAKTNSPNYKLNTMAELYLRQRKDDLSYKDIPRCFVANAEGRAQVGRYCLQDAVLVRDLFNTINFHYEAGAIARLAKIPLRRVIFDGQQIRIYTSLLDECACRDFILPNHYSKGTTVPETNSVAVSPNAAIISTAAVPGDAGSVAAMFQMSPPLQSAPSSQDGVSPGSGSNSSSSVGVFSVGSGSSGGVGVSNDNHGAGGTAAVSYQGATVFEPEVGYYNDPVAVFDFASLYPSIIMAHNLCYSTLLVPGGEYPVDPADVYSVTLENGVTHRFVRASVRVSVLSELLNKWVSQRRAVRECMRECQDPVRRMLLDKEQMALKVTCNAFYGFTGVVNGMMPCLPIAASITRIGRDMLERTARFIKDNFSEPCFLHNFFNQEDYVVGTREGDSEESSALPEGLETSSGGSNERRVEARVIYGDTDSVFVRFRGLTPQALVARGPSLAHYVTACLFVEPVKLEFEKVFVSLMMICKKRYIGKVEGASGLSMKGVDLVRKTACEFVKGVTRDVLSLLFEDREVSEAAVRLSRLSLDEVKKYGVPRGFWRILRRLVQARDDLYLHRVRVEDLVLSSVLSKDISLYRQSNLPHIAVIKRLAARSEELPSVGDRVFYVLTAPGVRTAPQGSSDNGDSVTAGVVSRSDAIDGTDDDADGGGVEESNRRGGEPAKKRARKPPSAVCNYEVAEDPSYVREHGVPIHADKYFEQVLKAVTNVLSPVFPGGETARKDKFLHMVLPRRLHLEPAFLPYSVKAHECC
row,Structure (SMILES),IC50
1,"O=C(NCc1ccc(Cl)cc1)c1cn(CCCOC2CCCCO2)c2c(F)cc(CO)cc2c1=O (stereo not drawn) [Example 6, N-(4-Chlorobenzyl)-8-fluoro-6-(hydroxymethyl)-4-oxo-1-[3-(tetrahydro-2H-pyran-2-yloxy)propyl]-1,4-dihydro-3-quinolinecarboxamide]",7200 nM
2,"CN1CCCC1CCn1cc(C(=O)NCc2ccc(Cl)cc2)c(=O)c2cc(C#CCO)ccc21 (stereo not drawn) [Example 16, N-(4-Chlorobenzyl)-1,4-dihydro-6-(3-hydroxy-1-propynyl)-1-[2-(1-methyl-2-pyrrolindinyl)ethyl]-4-oxo3-quinolinecarboxamide]",2800 nM
3,"O=C(NCc1ccc(Cl)cc1)c1cn(CCN2CCCC2)c2ccc(C#CCO)cc2c1=O [Example 18, N-(4-Chlorobenzyl)-6-(3-hydroxy-1-propynyl)-1-[2-(1-pyrolidinyl)ethyl]-4-oxo-1,4-dihydro-3-quinolinecarboxamide]",2700 nM
4,"O=C(NCc1ccc(Cl)cc1)c1cn(CCN2CCOCC2)c2ccc(C#CCO)cc2c1=O [Example 19, N-(4-Chlorobenzyl)-6-(3-hydroxy-1-propynyl)-1-[2-(4-morpholinyl)ethyl]-4-oxo-1,4-dihydro-3-quinolinecarboxamide]",1800 nM

# Same assay, conditions: HCMV polymerase; SPA; modified assay: compounds in 100% DMSO, 4.5 mM DTT
row,IC50,Structure (SMILES)
1,> 20000 nM,CN(CCS(=O)(=O)O)C(=O)CCCCCCC(=O)OCCCc1ccc2c(c1)c(=O)c(C(=O)NCc1ccc(Cl)cc1)cn2C1CC1
2,1700 nM,"CC(C)n1cc(C(=O)NCc2ccc(Cl)cc2)c(=O)c2cc(C#CCO)ccc21 [Example 1, N-(4-Chlorobenzyl)-6-(3-hydroxy-1-propynyl)-1-isopropyl-4-oxo-1,4-dihydro-3-quinolinecarboxamide]"
3,1600 nM,"CCC(C)n1cc(C(=O)NCc2ccc(Cl)cc2)c(=O)c2cc(C#CCO)ccc21 (stereo not drawn) [Example 2, 1-(sec-butyl)-N-(4-chlorobenzyl)-6-(3-hydroxy-1-propynyl)-4-oxo-1,4-dihydro-3-quinolinecarboxamide]"
4,2300 nM,"CCC(C)n1cc(C(=O)NCc2ccc(Cl)cc2)c(=O)c2cc(C#CCO)cc(OC)c21 (stereo not drawn) [Example 3, 1-(sec-butyl)-N-(4-chlorobenzyl)-6-(3-hydroxy-1-propynyl)-8-methoxy-4-oxo-1,4-dihydro-3-quinolinecarboxamide]"
5,1600 nM,"Cn1cc(C(=O)NCc2ccc(Cl)cc2)c(=O)c2cc(CCCO)cc(OC(CO)CO)c21 [Example 5, N-(4-Chlorobenzyl)-8-[2-hydroxy-1-(hydroxymethyl)ethoxy]-6-(3-hydroxypropyl)1-methyl-4-oxo-1,4-dihydro-3-quinolinecarboxamide]"
6,1000 nM,"Cn1cc(C(=O)NCc2ccc(Cl)cc2)c(=O)c2cc(C#CCO)cc(F)c21 [Example 8, N-(4-Chlorobenzyl)-8-fluoro-6-(3-hydroxy-1-propynyl)-1-methyl-4-oxo-1,4-dihydro-3-quinolinecarboxamide]"
7,< 780 nM,"Cn1cc(C(=O)NCc2ccc(Cl)cc2)c(=O)c2cc(/C=C\CO)cc(F)c21 [Example 9, N-(4-Chlorobenzyl)-8-fluoro-6-[(Z)-3-hydroxy-1-propenyl)-1-methyl-4-oxo-1,4-dihydro-3-quinolinecarboxamide]"
8,1700 nM,"CCN(CC)CCn1cc(C(=O)NCc2ccc(Cl)cc2)c(=O)c2cc(C#CCO)cc(F)c21 [Example 10, N-(4-Chlorobenzyl)-1-[2-(diethylamino)ethyl]-8-fluoro-6-(3-hydroxy-1-propynyl)-4-oxo-1,4-dihydro-3-quinolinecarboxamide]"
9,1500 nM,"CCCn1cc(C(=O)NCc2ccc(Cl)cc2)c(=O)c2cc(C#CCO)ccc21 [Example 11, N-(4-Chlorobenzyl)-6-(3-hydroxy-1-propynyl)-4-oxo-1-propyl-1,4-dihydro-3-quinolinecarboxamide]"
10,2900 nM,"CN(C)CCn1cc(C(=O)NCc2ccc(Cl)cc2)c(=O)c2cc(C#CCO)ccc21 [Example 13, N-(4-Chlorobenzyl)-1-[2-(dimethylamino)ethyl]-6-(3-hydroxy-1-propynyl)-4-oxo-1,4-dihydro-3-quinolinecarboxamide, hydrochloride salt]"
11,4100 nM,"O=C(NCc1ccc(Cl)cc1)c1cn(CCCN2CCCCC2)c2ccc(C#CCO)cc2c1=O [Example 15, N-(4-Chlorobenzyl)-6-(3-hydroxy-1-propynyl)-1-[3-(1-piperidinyl)propyl]-4-oxo-1,4-dihydro-3-quinolinecarboxamide]"
12,3800 nM,"CN(C)CCCn1cc(C(=O)NCc2ccc(Cl)cc2)c(=O)c2cc(C#CCO)ccc21 [Example 20, N-(4-Chlorobenzyl)-1-[3-(dimethylamino)propyl]-6-(3-hydroxy-1-propynyl)-4-oxo-1,4-dihydro-3-quinolinecarboxamide]"
13,1400 nM,"C=Cn1cc(C(=O)NCc2ccc(Cl)cc2)c(=O)c2cc(C#CCO)ccc21 [Example 21, N-(4-Chlorobenzyl)-6-(3-hydroxy-1-propynyl)-4-oxo-1-vinyl-1,4-dihydro-3-quinolinecarboxamide]"
14,810 nM,"Cn1cc(C(=O)NCc2ccc(Cl)cc2)c(=O)c2cc(/C=C/CO)ccc21 [Example 22, N-(4-chlorobenzyl)-6-[(E)-3-hydroxy-1-propenyl]-1-methyl-4-oxo-1,4-dihydro-3-quinolinecarboxamide]"
15,620 nM,"Cn1cc(C(=O)NCc2ccc(Cl)cc2)c(=O)c2cc(/C=C\CO)ccc21 [Example 23, N-(4-chlorobenzyl)-6-[(Z)-3-hydroxy-1-propenyl]-1-methyl-4-oxo-1,4-dihydro-3-quinolinecarboxamide]"
16,23600 nM,"CCN(CCO)c1ccc2c(c1)c(=O)c(C(=O)NCc1ccc(Cl)cc1)cn2C [Example 24, N-(4-Chlorobenzyl)-6-[ethyl(2-hydroxyethyl)amino]-1-methyl-4-oxo-1,4-dihydro-3-quinolinecarboxamide]"
17,610 nM,"O=C(NCc1ccc(Cl)cc1)c1cn(C2CC2)c2ccc(CN3CCOCC3)cc2c1=O [Example 27, N-(4-Chlorobenzyl)-1-cyclopropyl-6-(4-morpholinylmethyl)-4-oxo-1,4-dihydro-3-quinolinecarboxamide]"
18,1800 nM,"CC(C)(C)OC(=O)Cn1cc(C(=O)NCc2ccc(Cl)cc2)c(=O)c2cc(C#CCO)ccc21 [Example 28, tert-Butyl 2-[3-{[(4-chlorobenzyl)amino]carbonyl}-6-(3-hydroxy-1-propynyl)-4-oxo-1(4H)-quinolinyl]acetate]"
19,1000 nM,"O=C(O)Cn1cc(C(=O)NCc2ccc(Cl)cc2)c(=O)c2cc(C#CCO)ccc21 [Example 29, 2-[3-{[(4-Chlorobenzyl)amino]carbonyl}-6-(3-hydroxy-1-propynyl)-4-oxo-1(4H)-quinolinyl]acetic acid]"
20,950 nM,"O=C(NCc1ccc(Cl)cc1)c1cn(CCO)c2ccc(C#CCO)cc2c1=O [Example 30, N-(4-Chlorobenzyl)-1-(2-hydroxyethyl)-6-(3-hydroxy-1-propynyl)-4-oxo-1,4-dihydro-3-quinolinecarboxamide]"
21,27200 nM,"Cn1cc(C(=O)NCc2ccc(Cl)cc2)c(=O)c2cc(CCCOP(=O)(OC(C)(C)C)OC(C)(C)C)ccc21 [Example 32, Di(tert-butyl) 3-(3-{[(4-chlorobenzyl)amino]carbonyl}-1-methyl-4-oxo-1,4-dihydro-6-quinolinyl)propyl phosphate]"
22,3700 nM,"Cn1cc(C(=O)NCc2ccc(Cl)cc2)c(=O)c2cc(CCCOP(=O)(O)O)ccc21 [Example 33, 3-(3-{[(4-Chlorobenzyl)amino]carbonyl}-1-methyl-4-oxo-1,4-dihydro-6-quinolinyl)propyl dihydrogen phosphate]"
23,> 20000 nM,"CC(C)(C)OP(=O)(OCCCc1ccc2c(c1)c(=O)c(C(=O)NCc1ccc(Cl)cc1)cn2C1CC1)OC(C)(C)C [Example 34, Di(tert-butyl) 3-(3-{[(4-chlorobenzyl)amino]carbonyl}-1-cyclopropyl-4-oxo-1,4-dihydro-6-quinolinyl)propyl phosphate]"
24,> 20000 nM,"CN(CCS(=O)(=O)O)C(=O)CCCCCCC(=O)OCC#Cc1ccc2c(c1)c(=O)c(C(=O)NCc1ccc(Cl)cc1)cn2C [Example 37, Sodium 2-[(8-{[3-(3-{[(^4-chlorobenzyl)amino]carbonyl}-1-methyl-4-oxo-1,4-dihydro-6-quinolinyl)-2-propynyl]oxy}-8-oxooctanoyl)(methyl)amino]-1-ethanesulfonate]"
25,2200 nM,CC(C)(C)n1cc(C(=O)NCc2ccc(Cl)cc2)c(=O)c2cc(C#CCO)ccc21 [Example 39]
26,1200 nM,"COCCOCCn1cc(C(=O)NCc2ccc(Cl)cc2)c(=O)c2cc(C#CCO)ccc21 [Example 42, N-(4-Chlorobenzyl)-6-(3-hydroxy-1-propynyl)-1-[2-(2-methoxyethoxy)ethyl]-4-oxo-1,4-dihydro-3-quinolinecarboxamide]"
